What is called pKi is the negative decadic logarithm of the Ki, by convention in mol/L. A lower pKi goes with a large Ki.

In assay [1] the target is Mu-type opioid receptor (Homo sapiens) (UniProt P35372). The assay is described as follows: Intrinsic activity at human mu opioid receptor expressed in CHOK1 cell membranes at 0.00001 to 20 uM after 30 mins by GTP-Eu nucleotide exchange assay relative to DAMGO. Format: functional. As to conditions: CHO-K1.
Assay [2] addresses Kappa-type opioid receptor (Cavia porcellus, UniProt P41144). The assay is described as follows: Displacement of [3H]-diprenorphine from guinea pig kappa opioid receptor expressed in CHOK1 cell membranes. As to conditions: cho-k1.
Assay [3] concerns the target Delta-type opioid receptor (Homo sapiens, UniProt P41143). The assay is described as follows: Displacement of [3H]-diprenorphine from human delta opioid receptor expressed in cell membranes.

Sequence of Delta-type opioid receptor (P41143 whole entry): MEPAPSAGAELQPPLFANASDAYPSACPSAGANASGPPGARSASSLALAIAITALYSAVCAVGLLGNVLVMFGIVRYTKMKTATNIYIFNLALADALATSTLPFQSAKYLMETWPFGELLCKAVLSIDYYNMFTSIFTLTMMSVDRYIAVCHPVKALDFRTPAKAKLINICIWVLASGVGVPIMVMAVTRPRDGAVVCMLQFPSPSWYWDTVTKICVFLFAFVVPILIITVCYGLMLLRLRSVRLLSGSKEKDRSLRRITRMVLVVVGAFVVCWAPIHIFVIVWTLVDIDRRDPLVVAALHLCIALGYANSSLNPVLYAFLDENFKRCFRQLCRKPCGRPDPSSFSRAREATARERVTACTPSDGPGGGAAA
Sequence of Kappa-type opioid receptor (P41144 whole entry): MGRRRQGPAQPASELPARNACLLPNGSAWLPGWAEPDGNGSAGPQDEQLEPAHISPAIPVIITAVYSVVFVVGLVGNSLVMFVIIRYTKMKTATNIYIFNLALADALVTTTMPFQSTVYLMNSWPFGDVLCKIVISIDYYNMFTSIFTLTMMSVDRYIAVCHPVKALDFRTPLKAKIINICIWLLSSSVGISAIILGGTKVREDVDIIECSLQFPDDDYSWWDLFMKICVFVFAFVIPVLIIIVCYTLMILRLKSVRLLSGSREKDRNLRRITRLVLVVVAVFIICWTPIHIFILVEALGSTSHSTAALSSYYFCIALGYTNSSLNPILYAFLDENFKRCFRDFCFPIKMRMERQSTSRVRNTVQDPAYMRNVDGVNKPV
Sequence of Mu-type opioid receptor (Homo sapiens) (P35372 whole entry): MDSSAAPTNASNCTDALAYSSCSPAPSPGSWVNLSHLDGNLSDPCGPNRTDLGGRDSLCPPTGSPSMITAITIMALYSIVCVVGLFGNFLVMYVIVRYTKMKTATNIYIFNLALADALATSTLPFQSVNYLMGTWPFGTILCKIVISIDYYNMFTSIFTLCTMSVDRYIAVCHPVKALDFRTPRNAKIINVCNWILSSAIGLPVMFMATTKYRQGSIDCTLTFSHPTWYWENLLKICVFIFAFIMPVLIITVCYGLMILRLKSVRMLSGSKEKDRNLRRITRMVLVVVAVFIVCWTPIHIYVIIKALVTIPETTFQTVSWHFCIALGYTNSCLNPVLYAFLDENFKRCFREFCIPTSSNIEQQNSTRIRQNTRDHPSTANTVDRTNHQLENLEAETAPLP

`NC(=O)c1cccc([C@H]2C[C@H]3CC[C@@H](C2)N3CCN(CC2CCCCC2)C(=O)C[C@H](O)CO)c1.O=C(O)C(F)(F)F` registered an Intrinsic activity in assay [1] of less than 40%. The pKi in assay [2] and in assay [3] was 7 to 10.5 each time.
In turn, `NC(=O)c1cccc([C@H]2C[C@H]3CC[C@@H](C2)N3CCN(Cc2c(F)cccc2F)C(=O)C2(O)CC2)c1.O=C(O)C(F)(F)F` returned an Intrinsic activity in assay [1] of less than 40%. The pKi in assay [2] and in assay [3] was 7 to 10.5 each time.
`NC(=O)c1cccc([C@H]2C[C@H]3CC[C@@H](C2)N3CCN(Cc2c(F)cccc2F)C(=O)[C@H]2CC[C@H](O)CC2)c1.O=C(O)C(F)(F)F` registered an Intrinsic activity in assay [1] of less than 40%. The negative-log Ki (pKi) in assay [2] and in assay [3] was 7 to 10.5 in each case.
With `O=C([C@@H](O)c1ccccc1)N(CCN1[C@@H]2CC[C@H]1C[C@@H](c1cccc(O)c1)C2)CC1CCCCC1`, in assay [1], the Intrinsic activity was less than 40%. The negative-log Ki (pKi) in assay [2] and in assay [3] was 7 to 10.5 in each case.
In assay [1], `CC(C)(CC(=O)O)CC(=O)N(CCN1[C@@H]2CC[C@H]1C[C@@H](c1cccc(O)c1)C2)CC1CCCCC1` yielded an Intrinsic activity of less than 40%. The pKi in assay [2] and in assay [3] was 7 to 10.5 in each case.
On to `NC(=O)c1cccc([C@H]2C[C@H]3CC[C@@H](C2)N3CCN(CC2CCCCC2)C(=O)Cc2ccccc2)c1`, for which the Intrinsic activity in assay [1] is less than 40%. Further, the pKi in assay [2] and in assay [3] was 7 to 10.5 each time.
For `CC(C)(C)C(=O)N(CCN1[C@@H]2CC[C@H]1C[C@@H](c1cccc(C(N)=O)c1)C2)Cc1ccccc1.O=C(O)C(F)(F)F`, in assay [1], the Intrinsic activity was less than 40%. Moreover, the pKi in assay [2] and in assay [3] was 7 to 10.5 in each case.
Take `CS(=O)(=O)CC(=O)N(CCN1[C@@H]2CC[C@H]1C[C@@H](c1cccc(O)c1)C2)Cc1c(F)cccc1F`: the Intrinsic activity in assay [1] was less than 40%. In addition, the pKi in assay [2] and in assay [3] was 7 to 10.5 in each case.
`CN(C)CC[C@H](O)C(=O)N(CCN1[C@@H]2CC[C@H]1C[C@@H](c1cccc(C(N)=O)c1)C2)CC1CCCCC1`: the Intrinsic activity in assay [1] is less than 40%. The negative logarithm of the Ki (pKi) in assay [2] and in assay [3] was 7 to 10.5 each time.
In turn, `CS(=O)(=O)CC(=O)N(CCN1[C@@H]2CC[C@H]1C[C@@H](c1cccc(C(N)=O)c1)C2)CC1CCCC1.O=C(O)C(F)(F)F` gave an Intrinsic activity in assay [1] of less than 40%. The pKi in assay [2] and in assay [3] was 7 to 10.5 in each case.
In assay [1], `CC(CO)(CO)C(=O)N(CCN1[C@@H]2CC[C@H]1C[C@@H](c1cccc(C(N)=O)c1)C2)CC1CCCCC1` had an Intrinsic activity of less than 40%. The pKi in assay [2] and in assay [3] was 7 to 10.5 each time.
`CS(=O)(=O)CC(=O)N(CCN1[C@@H]2CC[C@H]1C[C@@H](c1cccc(C(N)=O)c1)C2)Cc1cccc(F)c1.O=C(O)C(F)(F)F` yielded an Intrinsic activity in assay [1] of less than 40%. Further, the pKi in assay [2] and in assay [3] was 7 to 10.5 throughout.
Molecule `NC(=O)c1cccc([C@H]2C[C@H]3CC[C@@H](C2)N3CCN(Cc2c(F)cccc2F)C(=O)[C@@H](O)Cc2ccccc2)c1.O=C(O)C(F)(F)F` had an Intrinsic activity in assay [1] of less than 40%. Besides, the pKi in assay [2] and in assay [3] was 7 to 10.5 in each case.
For `CS(=O)(=O)CC(=O)N(CCN1[C@@H]2CC[C@H]1C[C@@H](c1cccc(O)c1)C2)Cc1cccc(F)c1`, in assay [1], the Intrinsic activity is less than 40%. In addition, the negative-log Ki (pKi) in assay [2] and in assay [3] was 7 to 10.5 throughout.
In turn, `CS(=O)(=O)CC(=O)N(CCN1[C@@H]2CC[C@H]1C[C@@H](c1cccc(O)c1)C2)CC1CCCCC1` displayed an Intrinsic activity in assay [1] of less than 40%. Besides, the pKi in assay [2] and in assay [3] was 7 to 10.5 each time.
In assay [1], `CC(C)(O)C(=O)N(CCN1[C@@H]2CC[C@H]1C[C@@H](c1cccc(C(N)=O)c1)C2)Cc1ccccc1.O=C(O)C(F)(F)F` came in with an Intrinsic activity of less than 40%. The pKi in assay [2] and in assay [3] was 7 to 10.5 in each case.
For `NC(=O)c1cccc([C@H]2C[C@H]3CC[C@@H](C2)N3CCN(CCc2ccc(F)cc2)C(=O)CO)c1.O=C(O)C(F)(F)F`, the Intrinsic activity in assay [1] is less than 40%. Besides, the negative-log Ki (pKi) in assay [2] and in assay [3] was 7 to 10.5 in each case.
With `CC(C)(O)C(=O)N(CCN1[C@@H]2CC[C@H]1C[C@@H](c1cccc(C(N)=O)c1)C2)Cc1c(F)cccc1F.O=C(O)C(F)(F)F`, the Intrinsic activity in assay [1] is less than 40%. Further, the pKi in assay [2] and in assay [3] was 7 to 10.5 in each case.
For `CN(C)CC(=O)N(CCN1[C@@H]2CC[C@H]1C[C@@H](c1cccc(C(N)=O)c1)C2)CC1CCCCC1`, the Intrinsic activity in assay [1] is less than 40%. For the same molecule, the pKi in assay [2] and in assay [3] was 7 to 10.5 in each case.
On to `CC(C)(CO)C(=O)N(CCN1[C@@H]2CC[C@H]1C[C@@H](c1cccc(C(N)=O)c1)C2)Cc1ccccc1.O=C(O)C(F)(F)F`, for which, in assay [1], the Intrinsic activity was less than 40%. Besides, the pKi in assay [2] and in assay [3] was 7 to 10.5 in each case.
On to `NC(=O)c1cccc([C@H]2C[C@H]3CC[C@@H](C2)N3CCN(CC2CCCCC2)C(=O)[C@@H](O)Cc2ccccc2)c1`, for which the Intrinsic activity in assay [1] was less than 40%. Also, the negative logarithm of the Ki (pKi) in assay [2] and in assay [3] was 7 to 10.5 each time.
`O=C(O)CCC(=O)N(CCN1[C@@H]2CC[C@H]1C[C@@H](c1cccc(O)c1)C2)CC1CCCCC1` (single isomer, unassigned) returned an Intrinsic activity in assay [1] of less than 40%. In addition, the pKi in assay [2] and in assay [3] was 7 to 10.5 each time.
In turn, `C[C@H](CN1[C@@H]2CC[C@H]1C[C@@H](c1cccc(O)c1)C2)N(Cc1ccccc1)C(=O)CCC(=O)O` returned an Intrinsic activity in assay [1] of less than 40%. Moreover, the pKi in assay [2] and in assay [3] was 7 to 10.5 each time.
The molecule `CS(=O)(=O)N(CCN1[C@@H]2CC[C@H]1C[C@@H](c1cccc(C(N)=O)c1)C2)CC1CCCC1.O=C(O)C(F)(F)F` showed an Intrinsic activity in assay [1] of less than 40%. In addition, the negative-log Ki (pKi) in assay [2] and in assay [3] was 7 to 10.5 in each case.
In turn, `O=C(CO)N(CCN1[C@@H]2CC[C@H]1C[C@@H](c1cccc(O)c1)C2)Cc1cccc(F)c1` gave an Intrinsic activity in assay [1] of less than 40%. Besides, the negative-log Ki (pKi) in assay [2] and in assay [3] was 7 to 10.5 each time.
In assay [1], `O=C(CO)N(CCN1[C@@H]2CC[C@H]1C[C@@H](c1cccc(O)c1)C2)Cc1ccc(C(F)(F)F)cc1` registered an Intrinsic activity of less than 40%. The negative-log Ki (pKi) in assay [2] and in assay [3] was 7 to 10.5 in each case.
`CC(C)(C)C(=O)N(CCN1[C@@H]2CC[C@H]1C[C@@H](c1cccc(C(N)=O)c1)C2)Cc1c(F)cccc1F.O=C(O)C(F)(F)F`: the Intrinsic activity in assay [1] was less than 40%. Further, the pKi in assay [2] and in assay [3] was 7 to 10.5 in each case.
`NC(=O)c1cccc([C@H]2C[C@H]3CC[C@@H](C2)N3CCN(Cc2ccccc2)C(=O)C2(O)CC2)c1.O=C(O)C(F)(F)F`: the Intrinsic activity in assay [1] was less than 40%. For the same molecule, the negative-log Ki (pKi) in assay [2] and in assay [3] was 7 to 10.5 each time.
Take `CS(=O)(=O)CC(=O)N(CCN1[C@@H]2CC[C@H]1C[C@@H](c1cccc(C(N)=O)c1)C2)CC1CCC(F)(F)CC1.O=C(O)C(F)(F)F`: in assay [1], the Intrinsic activity was less than 40%. Moreover, the negative logarithm of the Ki (pKi) in assay [2] and in assay [3] was 7 to 10.5 each time.
Molecule `COCC(=O)N(CCN1[C@@H]2CC[C@H]1C[C@@H](c1cccc(C(N)=O)c1)C2)Cc1c(F)cccc1F.O=C(O)C(F)(F)F` yielded an Intrinsic activity in assay [1] of less than 40%. Besides, the negative logarithm of the Ki (pKi) in assay [2] and in assay [3] was 7 to 10.5 each time.
On to `NC(=O)c1cccc([C@H]2C[C@H]3CC[C@@H](C2)N3CCN(CC2CCC2)C(=O)[C@@H](O)CO)c1.O=C(O)C(F)(F)F`, for which, in assay [1], the Intrinsic activity is less than 40%. Also, the pKi in assay [2] and in assay [3] was 7 to 10.5 throughout.
For `CN(C)S(=O)(=O)N(CCN1[C@@H]2CC[C@H]1C[C@@H](c1cccc(C(N)=O)c1)C2)Cc1ccc(C(F)(F)F)cc1.O=C(O)C(F)(F)F`, the Intrinsic activity in assay [1] was less than 40%. For the same molecule, the pKi in assay [2] and in assay [3] was 7 to 10.5 throughout.
In assay [1], `CC(C)CC(=O)N(CCN1[C@@H]2CC[C@H]1C[C@@H](c1cccc(O)c1)C2)CC1CCCCC1` showed an Intrinsic activity of less than 40%. Besides, the negative-log Ki (pKi) in assay [2] and in assay [3] was 7 to 10.5 in each case.
The molecule `COCC(=O)N(CCN1[C@@H]2CC[C@H]1C[C@@H](c1cccc(C(N)=O)c1)C2)CC1CCCCC1.O=C(O)C(F)(F)F` displayed an Intrinsic activity in assay [1] of less than 40%. The pKi in assay [2] and in assay [3] was 7 to 10.5 throughout.
`N#CCC(=O)N(CCN1[C@@H]2CC[C@H]1C[C@@H](c1cccc(C(N)=O)c1)C2)Cc1ccccc1.O=C(O)C(F)(F)F` registered an Intrinsic activity in assay [1] of less than 40%. The pKi in assay [2] and in assay [3] was 7 to 10.5 each time.
In assay [1], `O=C(C1CCCCC1)N(CCN1[C@@H]2CC[C@H]1C[C@@H](c1cccc(O)c1)C2)CC1CCCCC1` displayed an Intrinsic activity of less than 40%. The pKi in assay [2] and in assay [3] was 7 to 10.5 each time.
The molecule `CC(C)CC(=O)N(CCN1[C@@H]2CC[C@H]1C[C@@H](c1cccc(O)c1)C2)Cc1cccc(F)c1` had an Intrinsic activity in assay [1] of less than 40%. For the same molecule, the pKi in assay [2] and in assay [3] was 7 to 10.5 each time.
Consider `CC(C)NC(=O)N(CCN1[C@@H]2CC[C@H]1C[C@@H](c1cccc(C(N)=O)c1)C2)CC1CCCCC1`, for which the Intrinsic activity in assay [1] was less than 40%. The negative-log Ki (pKi) in assay [2] and in assay [3] was 7 to 10.5 each time.
In assay [1], `CC(C)(O)C(=O)N(CCCN1[C@@H]2CC[C@H]1C[C@@H](c1cccc(C(N)=O)c1)C2)Cc1ccccc1.O=C(O)C(F)(F)F` had an Intrinsic activity of less than 40%. The pKi in assay [2] and in assay [3] was 7 to 10.5 throughout.
`NC(=O)c1cccc([C@H]2C[C@H]3CC[C@@H](C2)N3CCN(CC2CCCCC2)C(=O)[C@@H](O)CCO)c1.O=C(O)C(F)(F)F` came in with an Intrinsic activity in assay [1] of less than 40%. The pKi in assay [2] and in assay [3] was 7 to 10.5 throughout.
In the case of `NC(=O)CCC(=O)N(CCN1[C@@H]2CC[C@H]1C[C@@H](c1cccc(O)c1)C2)CC1CCCCC1`, the Intrinsic activity in assay [1] is less than 40%. The pKi in assay [2] and in assay [3] was 7 to 10.5 in each case.

Values taken from ChEMBL document CHEMBL3879907, “8-azabicyclo[3.2.1]octane compounds as mu opioid receptor antagonists” (2014).
